# Values quoted from earlier work, collected in patent US6503920B1, “Cabergoline and pramipexole: new uses and combinations” (Pharmacia & Upjohn Company, priority 1998, dated 2003).
# What was measured:
# PSP patients [1] = tested on: PSP patients
# PSP patients [2] = conditions: 750-1500 mg per day
# PSP patients [3] = conditions: controlled trial of 7 subjects
# PSP patients [4] = conditions: controlled trial
# PSP patients [5] = conditions: 10 patients, double blind crossover
# PSP patients [6] = conditions: 120 mg/day, 2-week open label, two patients
smiles,measurement,setting,value
N[C@@H](Cc1ccc(O)c(O)c1)C(=O)O [L-dopa],most common side effects reported,PSP patients [1],development of hallucinations
same,patients showing no effect,PSP patients [2],44%
same,response rate showing mild to moderate improvement on the basis of clinical impressions,PSP patients [2],54%
CCN(CC)C(=O)N[C@H]1C=C2c3cccc4[nH]cc(c34)C[C@H]2N(C)C1 [Lisuride],overall result of the trial,PSP patients [3],not any significant results
same,patients with mild improvement,PSP patients [3],two patients had a mild improvement
CCCN1C[C@H](CSC)C[C@@H]2c3cccc4[nH]cc(c34)C[C@H]21 [Pergoline],subjects with mild antiparkinsonian effects,PSP patients [4],2/3
CCN1C(=O)CC2(CCN(C)CC2)C1=O [RS-86],motor or cognitive changes,PSP patients [5],no consistent motor or cognitive changes
c1ccc2c(c1)OCC(C1=NCCN1)O2 (stereo not drawn) [Idazoxan],marginal improvement,PSP patients [6],12-34%
same,side effects,PSP patients [6],sympathetic side effects were common
